Values belong to the compound of their own block, whether it stands above or below them.
Tests used:
[1] = tested on: human normal keratinocyte cells (HaCaT); test: MTT cytotoxicity assay; format: cell-based; settings: MTT, 48 h, normal cells; read-out: IC50 values HaCaT
Method: In order to investigate the selectivity of the compounds for cancer cells rather than normal cell lines, the compounds were also screened for their anticancer activity on the human normal keratinocyte cells (HaCaT).
(§1) Cytotoxic activity of the compounds was tested with human lung cancer cell lines A549, human breast cancer cell lines MCF-7 and human normal keratinocyte cells (HaCaT) by using MTT assay, which was done according to the earlier literature methods[77] and IC50 values obtained from nonlinear regression using GraphPad Prism 5.[78] The LDH release[79] and NO release[80] assays of the compounds was evaluated by the earlier reported methods.

Aspergillus fumigatus = test: In vitro antifungal assay (zone of inhibition, MIC); format: cell-based
Method: (§2) The free ligands and their cyclometallated ruthenium(II) carbonyl complexes were screened for their in vitro antimicrobial activity against certain pathogenic bacterial and fungal species at three different concentrations using disc diffusion method.
(§3) Antimicrobial activities of [RuHClCO(PPh3)3], ligands H2L^1–4 and new organometallic Ru(II) complexes (1–4) were evaluated by agar well diffusion method[76] as reported, by taking Staphylococcus aureus, Streptococcus pneumonie, Pseudomonas aeruginosa, Salmonella paratyphi and fungus such as Candida albicans, Trichophyton rubrum, Aspergillus niger, Aspergillus fumigatus and Candida tropicalis. The above said all test organisms were obtained from the MTCC, Chandigarh, India and Microbiological laboratory, Coimbatore, Tamil Nadu, India. The antimicrobial activity of the test compounds was checked with various concentrations (25 μg ml^−1, 50 μg ml^−1 and 100 μg ml^−1) against all the test pathogens. Gentamicin and ketoconazole were used as positive controls to study the antibacterial and antifungal activities respectively. Each experiment was performed in triplicate and the results are represented as average zone of inhibition and minimum inhibitory concentration of all the test pathogens.

Candida tropicalis = test: as above; format: cell-based
Method: as §2, §3

Trichophyton rubrum = test: as above; format: cell-based
Method: as §2, §3

Aspergillus niger = test: as above; format: cell-based
Method: as §2, §3

[2] = Total antioxidant capacity, phosphomolybdate method
Method: (§4) It has been reported that free radical species such as reactive oxygen species (ROS), are involved in the pathogenesis of various diseases through effects on DNA directly and by acting as a tumour promoter.[59,60] The DPPH free radical scavenging activity of the ligands and complexes were studied and quantitatively antioxidant properties were determined by using phosphomolybdate method. We knew that the inhibitory effects of the tested compounds on DPPH radical are concentration dependent and the suppression ratio increases with increasing sample concentrations (Fig. S36 ^†). […] In the phosphomolybdenum assay, the antioxidant activity is expressed as the number of equivalents of ascorbic acid (Table 6). The total antioxidant activity of the compounds is in the following order complex 3 > complex 2 > complex 1 > complex 4 > H2L^3 > H2L^2 > H2L^1 > H2L^4 > ascorbic acid > [RuHClCO(PPh3)3]. The results concluded that the metal complexes are better antioxidants than their parent ligands which may be due to the chelation of the ligands to metal ion.[35] The radical scavenging ability of the new complexes is greater than that of few other reported ruthenium complexes, containing Schiff base ligands.[9]
(§5) The DPPH radical scavenging activity of the compounds have been carried out according to the reported method.[74] In this study, various concentrations of the experimental standard ascorbic acid, [RuHCl(CO)(PPh3)3], ligands (20–100 μM) and complexes (2–10 μM) in methanol were taken. Total antioxidant activity of the compounds was determined by the phosphomolybdate method.[75]

C. albicans = test: In vitro antifungal assay (zone of inhibition, MIC); format: cell-based, Candida albicans; settings: C. albicans
Method: as §2, §3

P. aeruginosa = test: In vitro antibacterial assay (zone of inhibition, MIC); format: cell-based, Pseudomonas aeruginosa; settings: P. aeruginosa
Method: as §2, §3

S. aureus = test: as above; format: cell-based, Staphylococcus aureus; settings: S. aureus
Method: as §2, §3

[3] = tested on: human lung carcinoma cancer cell line A549; test: MTT cytotoxicity assay; format: cell-based; settings: MTT, 48 h; read-out: IC50 values A549
Source text: (§6) The DNA/protein binding studies, antioxidant and antimicrobial studies had shown that the ligands and ruthenium(II) complexes studied here have therapeutic potentials and were subjected to study their anticancer activity. A number of coumarin derivatives have shown considerable anticancer activity against a number of cell lines. All the 3-acetyl-7-methoxy-coumarin-4(N)-substituted thiosemicarbazone ligands, metal precursor [RuHClCO(PPh3)3] and their new cyclometallated Ru(II) complexes were assessed for their cytotoxicity with two human derived cell lines namely human lung carcinoma (A549) and human breast cancer cells (MCF-7) by using MTT assay. For comparison purpose, cisplatin was used as a positive control under identical conditions.
as §1

[4] = tested on: human breast cancer cell line MCF-7; test: MTT cytotoxicity assay; format: cell-based; settings: MTT, 48 h; read-out: IC50 values MCF-7
Source text: as §6, §1

S. pneumonie = test: In vitro antibacterial assay (zone of inhibition, MIC); format: cell-based, Streptococcus pneumonie; settings: S. pneumonie
Method: as §2, §3

S. paratyphi = test: as above; format: cell-based, Salmonella paratyphi
Source text: The free ligands and their cyclometallated ruthenium(II) carbonyl complexes were screened for their in vitro antimicrobial activity against certain pathogenic bacterial and fungal species at three different concentrations using disc diffusion method. […] Tested complexes had better antimicrobial activity than the ligands against all pathogens. This may be explained by Tweedy's chelation theory.[61] Coordination of ligands reduce the polarity of the metal ion essentially by partial sharing of its positive charge with the donor groups within the chelate ring system formed during the coordination and leading to the increase in lipophilic nature of the central metal atom, which favours the effective permeation through the lipid layer of microorganism.[61,62] […] When tested against T. rubrum, the activity of the complexes in the order of 3 > 2 > 1 > 4. In antibacterial studies, the complex 3 was effective against S. aureus followed by complex 2, 1 and 4 and in the case of S. pneumonie the activity of the complexes follows the order of 3 > 1 > 4 > 2. […] When tested against S. paratyphi complex 1 stood out as good followed by the complexes 4, 3 and 2 respectively.
as §3

[5] = DPPH radical scavenging assay; settings: in methanol
Method: as §4, §5

Compound: [C-]#[O+].[Cl][RuH].c1ccc(P(c2ccccc2)c2ccccc2)cc1.c1ccc(P(c2ccccc2)c2ccccc2)cc1.c1ccc(P(c2ccccc2)c2ccccc2)cc1 [[RuHClCO(PPh3)3], reference compound]
IC50 [1]: > 40 µM | Minimum inhibitory concentration (MIC); head: IC50 VALUES (Aspergillus fumigatus): 29.75 ± 0.54 µM | Zone of inhibition (Aspergillus fumigatus; 50 µg/ml): 15.58±0.65 mm | Zone of inhibition (Aspergillus fumigatus; 100 µg/ml): 18.38±0.65 mm | Minimum inhibitory concentration (MIC); head: IC50 VALUES (Candida tropicalis): 28.79 ± 0.41 µM | Zone of inhibition (Candida tropicalis; 50 µg/ml): 14.78±0.43 mm | Zone of inhibition (Candida tropicalis; 100 µg/ml): 18.59±0.41 mm | Minimum inhibitory concentration (MIC); head: IC50 VALUES (Trichophyton rubrum): 31.76 ± 0.42 µM | Zone of inhibition (Trichophyton rubrum; 50 µg/ml): 14.18±0.54 mm | Zone of inhibition (Trichophyton rubrum; 100 µg/ml): 17.91±0.24 mm | Minimum inhibitory concentration (MIC); head: IC50 VALUES (Aspergillus niger): 31.63 ± 0.59 µM | Zone of inhibition (Aspergillus niger; 50 µg/ml): 13.19±0.34 mm | Zone of inhibition (Aspergillus niger; 100 µg/ml): 15.14±0.31 mm | Total antioxidant capacity [2]: 07.02 ± 0.08 μg ascorbic acid equivalents/ml | Minimum inhibitory concentration (MIC); head: IC50 VALUES (C. albicans): 26.09 ± 0.48 µM | Zone of inhibition (C. albicans; 50 µg/ml): 13.29±0.45 mm | Zone of inhibition (C. albicans; 100 µg/ml): 16.67±0.11 mm | Minimum inhibitory concentration (MIC); head: IC50 VALUES (P. aeruginosa): 30.19 ± 0.53 µM | Zone of inhibition (P. aeruginosa; 50 µg/ml): 15.78±0.44 mm | Zone of inhibition (P. aeruginosa; 100 µg/ml): 17.89±0.42 mm | Minimum inhibitory concentration (MIC); head: IC50 VALUES (S. aureus): 35.84 ± 0.37 µM | Zone of inhibition (S. aureus; 50 µg/ml): 15.19±0.08 mm | Zone of inhibition (S. aureus; 100 µg/ml): 17.67±0.78 mm | IC50 [3]: 16 ± 0.21 µM | IC50 [4]: 20.1 ± 0.18 µM | Minimum inhibitory concentration (MIC); head: IC50 VALUES (S. pneumonie): 33.05 ± 0.28 µM | Zone of inhibition (S. pneumonie; 50 µg/ml): 14.39±0.34 mm | Zone of inhibition (S. pneumonie; 100 µg/ml): 16.44±0.11 mm | Zone of inhibition (S. paratyphi; 50 µg/ml): 13.29±0.65 mm | Zone of inhibition (S. paratyphi; 100 µg/ml): 17.44±0.55 mm

Compound: N.N.[Cl][Pt][Cl] [Cisplatin, reference compound]
IC50 [1]: > 40 µM | IC50 [3]: 15.1 ± 0.05 µM | IC50 [4]: 16.79 ± 0.08 µM

IC50 [5]: 98.7 ± 1.5 µM
Compound: O=C1O[C@H]([C@@H](O)CO)C(O)=C1O [vitamin C, ascorbic acid, reference compound]

Compound: CC(=O)N1CCN(c2ccc(OCC3COC(Cn4ccnc4)(c4ccc(Cl)cc4Cl)O3)cc2)CC1 (stereo not shown) [Ketaconazole, reference compound]
zone of inhibition at 25 µg/mL (Aspergillus fumigatus; 25 µg/ml): 23 ± 0.25 mm | zone of inhibition at 25 µg/mL (Candida tropicalis; 25 µg/ml): 19.5 ± 0.23 mm | zone of inhibition at 25 µg/mL (Trichophyton rubrum; 25 µg/ml): 24.12 ± 0.16 mm | zone of inhibition at 25 µg/mL (Aspergillus niger; 25 µg/ml): 21.89 ± 0.11 mm | zone of inhibition at 25 µg/mL (C. albicans; Candida albicans, 25 µg/ml): 20.34 ± 0.2 mm

Compound: CNC(C)C1CCC(N)C(OC2C(N)CC(N)C(OC3OCC(C)(O)C(NC)C3O)C2O)O1 (stereo not shown) [Gentamicin, reference compound]
zone of inhibition at 25 µg/mL (P. aeruginosa; Pseudomonas aeruginosa, 25 µg/ml): 20.2 ± 0.22 mm | zone of inhibition at 25 µg/mL (S. aureus; Staphylococcus aureus, 25 µg/ml): 20.3 ± 0.43 mm | zone of inhibition at 25 µg/mL (S. pneumonie; Streptococcus, 25 µg/ml): 20.3 ± 0.39 mm | zone of inhibition at 25 µg/mL (S. paratyphi; Salmonella enterica, 25 µg/ml): 20.4 ± 0.44 mm

Reference: publication PMC9077138, “An investigation on 3-acetyl-7-methoxy-coumarin Schiff bases and their Ru(II) metallates with potent antiproliferative activity and enhanced LDH and NO release” (RSC Advances, 2018)
